Tests used:
Conditions in all cases: 48 h
[1] = system: P12-Ichikawa; assay: cell viability relative to DMSO control; higher = less cytotoxic
How it was run: (§1)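 Library compounds in DMSO were pin-dosed in an 11-point threefold series (47 μM to 0.79 nM) onto leukemia cells in 1536-well plates (5 μl). Plates held 500 cells/well of NOMO1 or SEM or 1000 cells/well of P12-Ichikawa, each adapted for at least four passages in each medium. Luminescence was read with CellTiter-Glo One after 48 h at 37°C. Viability means the per-plate percentage relative to DMSO wells, using cell-free wells as background.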

[2] = system: NOMO1; assay: as above
How it was run: as §1

[3] = system: SEM cells; assay: as above
How it was run: as §1

[4] = system: P12-Ichikawa; assay: AUC of viability dose-response curve (% viability x log10 dose units); higher = less sensitive
How it was run: (§2)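 Medium-adapted leukemia cells in 1536-well plates, at 500 or 1000 cells/well, were incubated for 48 h at 37°C with library compounds in DMSO at 11 threefold doses from 47 μM to 0.79 nM. CellTiter-Glo One luminescence normalised per plate to DMSO and cell-free wells was fitted with a four-parameter log-logistic model over log10 doses. Area under the curve was integrated from this fit by trapezoidal rule, with curves beyond full viability scaled and failed quality-control curves removed.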

[5] = system: NOMO1; assay: as above
How it was run: as §2

[6] = system: SEM cells; assay: as above
How it was run: as §2

Nc1ncnc2ccccc12
cell viability [%]
Conditions | [1] | [2] | [3]
HPLM + 10% dialyzed FBS, 0.000781 µM | 87.8 | 77.8 | 83.3
HPLM + 10% dialyzed FBS, 0.00234 µM | 92.3 | 100 | 87.9
HPLM + 10% dialyzed FBS, 0.00702 µM | 95.5 | 100 | 93.9
HPLM + 10% dialyzed FBS, 0.0211 µM | 9.38 | 35.2 | 18.9
HPLM + 10% dialyzed FBS, 0.0632 µM | 106 | 97.8 | 97
HPLM + 10% dialyzed FBS, 0.19 µM | 100 | 87 | 97.1
HPLM + 10% dialyzed FBS, 0.569 µM | 106 | 88.3 | 109
HPLM + 10% dialyzed FBS, 1.71 µM | 105 | 101 | 91.5
HPLM + 10% dialyzed FBS, 5.12 µM | 105 | 88.4 | 90.5
HPLM + 10% dialyzed FBS, 15.4 µM | 100 | 105 | 93.4
HPLM + 10% dialyzed FBS, 46.1 µM | 111 | 105 | 99.5
RPMI 5 mM glucose + 10% FBS, 0.000781 µM | 84.2 | 84.2 | 97.9
RPMI 5 mM glucose + 10% FBS, 0.00234 µM | 90.7 | 85.9 | 98.7
RPMI 5 mM glucose + 10% FBS, 0.00702 µM | 88.3 | 87.6 | 118
RPMI 5 mM glucose + 10% FBS, 0.0211 µM | 13.7 | 18.6 | 13.2
RPMI 5 mM glucose + 10% FBS, 0.0632 µM | 104 | 97.6 | 123
RPMI 5 mM glucose + 10% FBS, 0.19 µM | 102 | 91.4 | 102
RPMI 5 mM glucose + 10% FBS, 0.569 µM | 105 | 101 | 96.9
RPMI 5 mM glucose + 10% FBS, 1.71 µM | 97.2 | 95.4 | 123
RPMI 5 mM glucose + 10% FBS, 5.12 µM | 97.8 | 88.3 | 99.1
RPMI 5 mM glucose + 10% FBS, 15.4 µM | 104 | 90.9 | 122
RPMI 5 mM glucose + 10% FBS, 46.1 µM | 104 | 81.7 | 107
RPMI 5 mM glucose + 10% dialyzed FBS, 0.000781 µM | 86.2 | 88.1 | 73.9
RPMI 5 mM glucose + 10% dialyzed FBS, 0.00234 µM | 91.8 | 84.1 | 76.3
RPMI 5 mM glucose + 10% dialyzed FBS, 0.00702 µM | 93.5 | 79.2 | 89.6
RPMI 5 mM glucose + 10% dialyzed FBS, 0.0211 µM | 28.2 | 44.1 | 16.7
RPMI 5 mM glucose + 10% dialyzed FBS, 0.0632 µM | 102 | 81.6 | 94.4
RPMI 5 mM glucose + 10% dialyzed FBS, 0.19 µM | 102 | 86.7 | 86.2
RPMI 5 mM glucose + 10% dialyzed FBS, 0.569 µM | 100 | 89 | 101
RPMI 5 mM glucose + 10% dialyzed FBS, 1.71 µM | 92.3 | 89.9 | 98.6
RPMI 5 mM glucose + 10% dialyzed FBS, 5.12 µM | 103 | 90.6 | 91.4
RPMI 5 mM glucose + 10% dialyzed FBS, 15.4 µM | 99.1 | 98.4 | 97.6
RPMI 5 mM glucose + 10% dialyzed FBS, 46.1 µM | 94 | 96 | 99.6

Cc1cncc2cccc([S+](=O)([O-])N3CCCN(C(=O)CN)C[C@@H]3C)c12
AUC of viability dose-response curve
Conditions | [4] | [5] | [6]
HPLM + 10% dialyzed FBS | 401 | 455 | 419
RPMI 5 mM glucose + 10% FBS | 401 | 446 | 397
RPMI 5 mM glucose + 10% dialyzed FBS | 412 | 438 | 392

[3], HPLM + 10% dialyzed FBS
Conditions | cell viability [%]
0.000781 µM | 94.8
0.00234 µM | 114
0.00702 µM | 126
0.0211 µM | 124
0.0632 µM | 122
0.19 µM | 134
0.569 µM | 138
1.71 µM | 137
5.12 µM | 79
15.4 µM | 66.7
46.1 µM | 39.9

C[C@H]1CC2C3CCC/4=C/C(=O)/C=C\[C@]4(C)[C@@]3(F)[C@@H](O)C[C@]2(C)[C@@]1(O)C(=O)CO (stereo partly specified)
AUC of viability dose-response curve
Conditions | [4] | [5] | [6]
HPLM + 10% dialyzed FBS | 374 | 420 | 372
RPMI 5 mM glucose + 10% FBS | 342 | 450 | 356
RPMI 5 mM glucose + 10% dialyzed FBS | 330 | 466 | 348

CCO[C@@H]1OC(=O)C[C@@H]1NC(=O)[C@@H]1CCCN1C(=O)[C@@H](NC(=O)c1ccc(N)c(Cl)c1)C(C)(C)C
AUC of viability dose-response curve
Conditions | [4] | [5] | [6]
HPLM + 10% dialyzed FBS | 345 | 328 | 453
RPMI 5 mM glucose + 10% FBS | 356 | 305 | 477
RPMI 5 mM glucose + 10% dialyzed FBS | 374 | 318 | 446

cell viability [%], [3]
Conditions | HPLM + 10% dialyzed FBS | RPMI 5 mM glucose + 10% dialyzed FBS
0.000781 µM | 106 | 103
0.00234 µM | 121 | 126
0.00702 µM | 124 | 125
0.0211 µM | 109 | 115
0.0632 µM | 145 | 140
0.19 µM | 138 | 158
0.569 µM | 119 | 146
1.71 µM | 150 | 156
5.12 µM | 151 | 126
15.4 µM | 142 | 146
46.1 µM | 111 | 125

CN(C)CCCN1c2ccccc2CCc2ccc(Cl)cc21
AUC of viability dose-response curve
Conditions | HPLM + 10% dialyzed FBS | RPMI 5 mM glucose + 10% FBS | RPMI 5 mM glucose + 10% dialyzed FBS
[5] | 431 | 448 | 441
[6] | 453 | 453 | 452

Conditions | cell viability [%]
[1], RPMI 5 mM glucose + 10% dialyzed FBS, 0.000781 µM | 71
[1], RPMI 5 mM glucose + 10% dialyzed FBS, 0.00234 µM | 155
[1], RPMI 5 mM glucose + 10% dialyzed FBS, 0.00702 µM | 125
[1], RPMI 5 mM glucose + 10% dialyzed FBS, 0.0211 µM | 145
[1], RPMI 5 mM glucose + 10% dialyzed FBS, 0.0632 µM | 138
[1], RPMI 5 mM glucose + 10% dialyzed FBS, 0.19 µM | 134
[1], RPMI 5 mM glucose + 10% dialyzed FBS, 0.569 µM | 142
[1], RPMI 5 mM glucose + 10% dialyzed FBS, 1.71 µM | 142
[1], RPMI 5 mM glucose + 10% dialyzed FBS, 5.12 µM | 134
[1], RPMI 5 mM glucose + 10% dialyzed FBS, 15.4 µM | 125
[1], RPMI 5 mM glucose + 10% dialyzed FBS, 46.1 µM | 82.9
[3], HPLM + 10% dialyzed FBS, 0.000781 µM | 122
[3], HPLM + 10% dialyzed FBS, 0.00234 µM | 132
[3], HPLM + 10% dialyzed FBS, 0.00702 µM | 122
[3], HPLM + 10% dialyzed FBS, 0.0211 µM | 134
[3], HPLM + 10% dialyzed FBS, 0.0632 µM | 118
[3], HPLM + 10% dialyzed FBS, 0.19 µM | 122
[3], HPLM + 10% dialyzed FBS, 0.569 µM | 125
[3], HPLM + 10% dialyzed FBS, 1.71 µM | 122
[3], HPLM + 10% dialyzed FBS, 5.12 µM | 105
[3], HPLM + 10% dialyzed FBS, 15.4 µM | 109
[3], HPLM + 10% dialyzed FBS, 46.1 µM | 39.6

N[S+](=O)([O-])NCCNc1nonc1/C(=N/O)Nc1ccc(F)c(Br)c1
AUC of viability dose-response curve
Conditions | [4] | [5] | [6]
HPLM + 10% dialyzed FBS | 354 | 353 | 435
RPMI 5 mM glucose + 10% FBS | 389 | 373 | 375
RPMI 5 mM glucose + 10% dialyzed FBS | 401 | 411 | 414

Source: the supplement of paper PMC11451515
